{"source": "patent US20070167492A1", "about": "“Molluscicidal agents” (priority 2003, published 2007)", "key": {"[1]": {"test_system": "Deroceras reticulatum (grey field slug)", "assay": "Example 1: pot test, treated winter wheat seed with 5 adult slugs per pot, 14 days", "type": "in vivo", "outline": "(§1)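 Fludioxonil-disinfected winter wheat seed (Kampa, 40 per pot) sown on quartz sand over potting soil with 5 adult slugs per pot; ±15° C., ±90% RH, 12 h light/12 h dark, 4 replicates. Damaged seeds, plants, dead slugs and fecal pellets counted up to day 14; F-tests and Student-tests.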"}, "[2]": {"assay": "Example 1: pot test, treated winter wheat seed with 5 adult slugs per pot, 14 days", "type": "in vivo, Deroceras reticulatum", "details": "Example 1; winter wheat seed treatment", "outline": "as §1"}, "[3]": {"details": "2 ml formulated per kg seed, 2 days after sowing"}, "[4]": {"details": "2 ml formulated per kg seed, 3 days after sowing"}, "[5]": {"details": "2 ml formulated per kg seed, 7 days after sowing"}, "[6]": {"details": "2 ml formulated per kg seed, 10 days after sowing"}, "[7]": {"details": "2 ml formulated per kg seed, 14 days after sowing"}, "[8]": {"details": "4 ml formulated per kg seed, 2 days after sowing"}, "[9]": {"details": "4 ml formulated per kg seed, 3 days after sowing"}, "[10]": {"details": "4 ml formulated per kg seed, 7 days after sowing"}, "[11]": {"details": "4 ml formulated per kg seed, 10 days after sowing"}, "[12]": {"details": "4 ml formulated per kg seed, 14 days after sowing"}, "[13]": {"details": "10 ml formulated per kg seed, 2 days after sowing"}, "[14]": {"details": "10 ml formulated per kg seed, 3 days after sowing"}, "[15]": {"details": "10 ml formulated per kg seed, 7 days after sowing"}, "[16]": {"details": "10 ml formulated per kg seed, 10 days after sowing"}, "[17]": {"details": "10 ml formulated per kg seed, 14 days after sowing"}}}
{"smiles": "O=CC=Cc1ccccc1", "note": "[cinnamaldehyde]", "values": [{"measurement": "number of utilizable plants after 14 days", "setting": "[1]; 2 ml formulated per kg seed", "result": 6.8}, {"measurement": "percentage of damaged seeds after 14 days", "setting": "[1]; 2 ml formulated per kg seed", "result": 64, "unit": "%"}, {"measurement": "Mean number of damaged seeds per pot", "setting": "[1]; [3]", "result": 2.0}, {"measurement": "Mean number of dead slugs per pot", "setting": "[1]; [3]", "result": 0}, {"measurement": "Mean number fecal pellets per pot", "setting": "[1]; [4]", "result": 47}, {"measurement": "Mean number of damaged seeds per pot", "setting": "[1]; [4]", "result": 5.5}, {"measurement": "Mean number of dead slugs per pot", "setting": "[1]; [4]", "result": 1.3}, {"measurement": "Mean number of plants present per pot", "setting": "[1]; [4]", "result": 3.3}, {"measurement": "Mean number fecal pellets per pot", "setting": "[1]; [5]", "result": 71}, {"measurement": "Mean number of damaged seeds per pot", "setting": "[1]; [5]", "result": 24.5}, {"measurement": "Mean number of dead slugs per pot", "setting": "[1]; [5]", "result": 1.3}, {"measurement": "Mean number of plants present per pot", "setting": "[1]; [5]", "result": 5.0}, {"measurement": "Mean number fecal pellets per pot", "setting": "[1]; [6]", "result": 80}, {"measurement": "Mean number of damaged seeds per pot", "setting": "[1]; [6]", "result": 24.8}, {"measurement": "Mean number of dead slugs per pot", "setting": "[1]; [6]", "result": 1.3}, {"measurement": "Mean number of plants present per pot", "setting": "[1]; [6]", "result": 6.8}, {"measurement": "Mean number fecal pellets per pot", "setting": "[1]; [7]", "result": 95}, {"measurement": "Mean number of damaged seeds per pot", "setting": "[1]; [7]", "result": 25.8}, {"measurement": "Mean number of dead slugs per pot", "setting": "[1]; [7]", "result": 1.8}, {"measurement": "Mean number of plants present per pot", "setting": "[1]; [7]", "result": 6.8}, {"measurement": "number of utilizable plants after 14 days", "setting": "[1]; 4 ml formulated per kg seed", "result": 0.5}, {"measurement": "percentage of damaged seeds after 14 days", "setting": "[1]; 4 ml formulated per kg seed", "result": 73, "unit": "%"}, {"measurement": "Mean number of damaged seeds per pot", "setting": "[1]; [8]", "result": 3.3}, {"measurement": "Mean number of dead slugs per pot", "setting": "[1]; [8]", "result": 0}, {"measurement": "Mean number fecal pellets per pot", "setting": "[1]; [9]", "result": 46}, {"measurement": "Mean number of damaged seeds per pot", "setting": "[1]; [9]", "result": 6.5}, {"measurement": "Mean number of dead slugs per pot", "setting": "[1]; [9]", "result": 0}, {"measurement": "Mean number of plants present per pot", "setting": "[1]; [9]", "result": 3.0}, {"measurement": "Mean number fecal pellets per pot", "setting": "[1]; [10]", "result": 111}, {"measurement": "Mean number of damaged seeds per pot", "setting": "[1]; [10]", "result": 26.5}, {"measurement": "Mean number of dead slugs per pot", "setting": "[1]; [10]", "result": 0.3}, {"measurement": "Mean number of plants present per pot", "setting": "[1]; [10]", "result": 1.3}, {"measurement": "Mean number fecal pellets per pot", "setting": "[1]; [11]", "result": 152}, {"measurement": "Mean number of damaged seeds per pot", "setting": "[1]; [11]", "result": 27.0}, {"measurement": "Mean number of dead slugs per pot", "setting": "[1]; [11]", "result": 0.3}, {"measurement": "Mean number of plants present per pot", "setting": "[1]; [11]", "result": 1.8}, {"measurement": "Mean number fecal pellets per pot", "setting": "[1]; [12]", "result": 160}, {"measurement": "Mean number of damaged seeds per pot", "setting": "[1]; [12]", "result": 29.0}, {"measurement": "Mean number of dead slugs per pot", "setting": "[1]; [12]", "result": 0.8}, {"measurement": "Mean number of plants present per pot", "setting": "[1]; [12]", "result": 0.8}, {"measurement": "number of utilizable plants after 14 days", "setting": "[1]; 10 ml formulated per kg seed", "result": 0.5}, {"measurement": "percentage of damaged seeds after 14 days", "setting": "[1]; 10 ml formulated per kg seed", "result": 37, "unit": "%"}, {"measurement": "Mean number of damaged seeds per pot", "setting": "[1]; [13]", "result": 4.0}, {"measurement": "Mean number of dead slugs per pot", "setting": "[1]; [13]", "result": 0}, {"measurement": "Mean number fecal pellets per pot", "setting": "[1]; [14]", "result": 54}, {"measurement": "Mean number of damaged seeds per pot", "setting": "[1]; [14]", "result": 7.0}, {"measurement": "Mean number of dead slugs per pot", "setting": "[1]; [14]", "result": 1.3}, {"measurement": "Mean number of plants present per pot", "setting": "[1]; [14]", "result": 5.0}, {"measurement": "Mean number fecal pellets per pot", "setting": "[1]; [15]", "result": 58}, {"measurement": "Mean number of damaged seeds per pot", "setting": "[1]; [15]", "result": 10.3}, {"measurement": "Mean number of dead slugs per pot", "setting": "[1]; [15]", "result": 1.3}, {"measurement": "Mean number of plants present per pot", "setting": "[1]; [15]", "result": 0.3}, {"measurement": "Mean number fecal pellets per pot", "setting": "[1]; [16]", "result": 77}, {"measurement": "Mean number of damaged seeds per pot", "setting": "[1]; [16]", "result": 10.3}, {"measurement": "Mean number of dead slugs per pot", "setting": "[1]; [16]", "result": 1.3}, {"measurement": "Mean number of plants present per pot", "setting": "[1]; [16]", "result": 0.5}, {"measurement": "Mean number fecal pellets per pot", "setting": "[1]; [17]", "result": 93}, {"measurement": "Mean number of damaged seeds per pot", "setting": "[1]; [17]", "result": 14.8}, {"measurement": "Mean number of dead slugs per pot", "setting": "[1]; [17]", "result": 1.3}, {"measurement": "Mean number of plants present per pot", "setting": "[1]; [17]", "result": 0.8}, {"measurement": "dead slugs relative to the untreated seed", "setting": "[1]; Example 1, 2 or 10 ml per kg of seed, 3 days after the start", "result": "significantly more dead slugs"}, {"measurement": "damaged seeds relative to the untreated seed", "setting": "[1]; Example 1, all dosages (2, 4, 10 ml/kg), after 3 and 7 days", "result": "significantly less damaged seeds"}, {"measurement": "protection / slug controlling effect (conclusion)", "setting": "[1]; Example 1, winter wheat seed treatment, dosages tested", "result": "no protection to the plant"}, {"measurement": "phytotoxicity", "setting": "[2]", "result": "phytotoxic"}]}
